In US6486199B1, “Spiro and dispiro 1,2,4-trioxolane antimalarials” (Medicines for Malaria Venture MMV International Centre …, priority 2001, dated 2002):
Marks after values point to notes of the source that are not given here.

How the values were obtained:
[1] = differential scanning calorimetry (DSC), thermal stability; type: physicochemical; conditions: thermal decomposition
P. berghei [2] = experiment: 4-day Peters test against P. berghei in vivo; conditions: 4 day
P. berghei [3] = experiment: 1-day Peters test against P. berghei in vivo; conditions: for oral activity based on po ED50/ED90 values: ranking among trioxolanes and controls
[4] = tested on: 21-day-old schistosomules of Schistosoma mansoni; experiment: effect on 21-day-old schistosomules in mice; type: in vivo; conditions: single 200 mg/kg per os; for FWR (%): female worm reduction rate; for Mean female worm burden: mean ± standard deviation; for TWR (%): total worm reduction rate
Protocol: […] Each group was treated per os with OZ compounds at a single dose of 200 mg/kg. Untreated mice served as the control. All groups were killed 4 weeks after treatment and the liver and intestine were removed and separated. The liver and intestine were compressed and alive male and female worms could be seen and counted. The effect of the compounds was evaluated by mean total and female worm burden.

[5] = tested on: adult schistosomes (49-day-old) of Schistosoma mansoni; experiment: effect on adult schistosomes (49-day-old) in mice; type: in vivo; conditions: single 400 mg/kg per os; for TWR (%): total worm reduction rate; for Mean total worm burden: x ± SD
Protocol: Mice were infected with 100 Schistosoma mansoni cercariae […]. Each group was treated per os with OZ compounds at a single dose of 400 mg/kg. Untreated mice served as the control. All groups were killed 4 weeks after treatment and the liver and intestine were removed and separated. The liver and intestine were compressed and alive male and female worms could be seen and counted.

[6] = tested on: ANKA strain of P. Berghei; experiment: single dose STI in vivo screen in infected Moro SPF mice; conditions: for antimalarial activity, overall assessment: overall judgement of in vitro and in vivo data of Table 2; for Activity (%) po / Activity (%) sc: percent reduction in parasitemia day 3 post-infection; for in vivo activity: 10 mg/kg po/sc data of Table 2
Protocol: In the single dose STI in vivo screen, Moro SPF mice infected with the ANKA strain of P. Berghei (groups of three mice) were treated on day one post-infection with trioxolanes dissolved or suspended in 3% ethanol and 7% Tween 80. […] Antimalarial activity was measured by percent redution in parasitemia on day three post-infection and survival times compared to an untreated control group. Survival to day 30 post-infection is considered to be a cure.

[7] = tested on: chloroquine-resistant K1 strain of P. falciparum; experiment: in vitro screen against chloroquine-resistant K1 strain of P. falciparum; type: cell-based; conditions: in vitro; for in vitro potency: strains not distinguished
[8] = tested on: chloroquine-sensitive NF54 strain of P. falciparum; experiment: in vitro screen against chloroquine-sensitive NF54 strain of P. falciparum; type: cell-based; conditions: in vitro, NF54 strain

With `O=C1CC2CC3(CC2C1)OOC1(O3)C2CC3CC(C2)CC1C3` (stereo not drawn) [OZ12, Adamantane-2-spiro-3′-1′,2′,4′-trioxolane-5′-spiro-3″-7″-oxo-cis-bicyclo[3.3.0]octane] the “Tm dec. (° C.)” value [1] was 149.8 °C, the “P. berghei (4 day) ED50 po” value (P. berghei [2]) was 6.8 mg/kg and the “P. berghei (4 day) ED90 po” value (P. berghei [2]) was 10.5 mg/kg. The “P. berghei (4 day) ED50 sc” value (P. berghei [2]) was 0.8 mg/kg and the “P. berghei (4 day) ED90 sc” value (P. berghei [2]) was 1.4 mg/kg.

With `CON=C1CCC2(CC1)OOC1(O2)C2CC3CC(C2)CC1C3` (stereo not drawn) [OZ15, Adamantane-2-spiro-3′-8′-methoxyimino-1′,2′,4′-trioxaspiro[4.5]decane] the “P. berghei (1 day) ED50 po” value (P. berghei [3]) was 3.1 mg/kg, the “P. berghei (1 day) ED90 po” value (P. berghei [3]) was 5.9 mg/kg and the “P. berghei (1 day) ED50 sc” value (P. berghei [3]) was 0.7 mg/kg. For the same molecule, the “P. berghei (1 day) ED90 sc” value (P. berghei [3]) was 2.6 mg/kg, the “Tm dec. (° C.)” value [1] was 157.8 °C and the “P. berghei (4 day) ED50 po” value (P. berghei [2]) was 2.9 mg/kg. The “P. berghei (4 day) ED90 po” value (P. berghei [2]) was 6.3 mg/kg, the “P. berghei (4 day) ED50 sc” value (P. berghei [2]) was 0.7 mg/kg and the “P. berghei (4 day) ED90 sc” value (P. berghei [2]) was 1.1 mg/kg. For the same molecule, the “FWR (%)” value [4] was 70%, the “Mean female worm burden” value [4] was 3.8 ± 2.4^b and the “TWR (%)” value [4] was 63%. The “Percentage of dead worm” value [5] was 10 (21/210), the Total dead worm [5] was 21 and the “TWR (%)” value [5] was 0%. The “Mean total worm burden” value [5] was 37.8 ± 20.6.

With `CC(C)(C)C1CCC2(CC1)OOC1(O2)C2CC3CC(C2)CC1C3` (stereo not drawn) [OZ18, Adamantane-2-spiro-3′-8′-t-butyl-1′,2′,4′-trioxaspiro[4.5]decane] the “Tm dec. (° C.)” value [1] was 166.5 °C, the “FWR (%)” value [4] was 9% and the “Mean female worm burden” value [4] was 11.4 ± 2.7^a. For the same molecule, the “TWR (%)” value [4] was 12%, the “antimalarial activity, overall assessment” value (“antimalarial activity” below) [6] was “completely inactive” and the “Activity (%) po” value ([6]; single 10 mg/kg po) was 0/0%. The “Activity (%) sc” value ([6]; single 10 mg/kg sc) was 0/0%, the “Percentage of dead worm” value [5] was 0 and the Total dead worm [5] was 0. For the same molecule, the “TWR (%)” value [5] was 0.6% and the “Mean total worm burden” value [5] was 35.6 ± 7.2^a.

With `c1ccc(CON=C2CCC3(CC2)OOC2(O3)C3CC4CC(C3)CC2C4)cc1` (stereo not drawn) [OZ19, Adamantane-2-spiro-3′-8′-benzyloxyimino-1′,2′,4′-trioxaspiro[4.5]decane] the “P. berghei (1 day) ED50 po” value (P. berghei [3]) was 3.4 mg/kg, the “P. berghei (1 day) ED90 po” value (P. berghei [3]) was 9.4 mg/kg and the “P. berghei (1 day) ED50 sc” value (P. berghei [3]) was 1.8 mg/kg. The “P. berghei (1 day) ED90 sc” value (P. berghei [3]) was 3.6 mg/kg, the “in vitro potency, fold less potent than the analog” value [7] was about 2 fold and the “Tm dec. (° C.)” value [1] was 157.8 °C. The “P. berghei (4 day) ED50 po” value (P. berghei [2]) was <10/>10 mg/kg and the “P. berghei (4 day) ED90 po” value (P. berghei [2]) was <10/>10 mg/kg.

In the case of `O=C(c1ccccc1)N1CCC2(CC1)OOC1(O2)C2CC3CC(C2)CC1C3` (stereo not drawn) [OZ24, Adamantane-2-spiro-3′-8′-benzoyl-1′,2′,4′-trioxa-8′-azaspiro[4.5]decane], the “P. berghei (1 day) ED50 po” value (P. berghei [3]) is reported as 3.9 mg/kg, the “P. berghei (1 day) ED90 po” value (P. berghei [3]) is reported as 9.0 mg/kg and the “P. berghei (1 day) ED90 sc” value (P. berghei [3]) is reported as “NA/2.1 mg/kg”. The “Tm dec. (° C.)” value [1] was 154.9 °C, the “P. berghei (4 day) ED50 po” value (P. berghei [2]) was <10/>10 mg/kg and the “P. berghei (4 day) ED90 po” value (P. berghei [2]) was <10/>10 mg/kg.

With `CCCC1CCC2(CC1)OOC1(O2)C2CC3CC(C2)CC1C3` (stereo not drawn) [OZ25, Adamantane-2-spiro-3′-8′-propyl-1′,2′,4′-trioxaspiro[4.5]decane] the “P. berghei (1 day) ED50 po” value (P. berghei [3]) was 1.9 mg/kg, the “P. berghei (1 day) ED90 po” value (P. berghei [3]) was 3.1 mg/kg and the “P. berghei (1 day) ED50 sc” value (P. berghei [3]) was 1.7 mg/kg. For the same molecule, the “P. berghei (1 day) ED90 sc” value (P. berghei [3]) was 3.0 mg/kg, the “oral activity based on po ED50/ED90 values” (P. berghei [3]) was “only slightly less orally active than OZ11” and the “Tm dec. (° C.)” value [1] was 167.7 °C. The “P. berghei (4 day) ED50 po” value (P. berghei [2]) was 1.2 mg/kg, the “P. berghei (4 day) ED90 po” value (P. berghei [2]) was 3.7 mg/kg and the “P. berghei (4 day) ED50 sc” value (P. berghei [2]) was 2.2 mg/kg. The “P. berghei (4 day) ED90 sc” value (P. berghei [2]) was 3.7 mg/kg and the “antimalarial activity” value [6] was “excellent activity”.

With `c1ccc2c(c1)COC1(CCC3(CC1)OOC1(O3)C3CC4CC(C3)CC1C4)OC2` (stereo not drawn) [OZ31, Adamantane-2-spiro-3′-11′,12′-benzo-1′,2′,4′, 9′,14′-pentaoxadispiro[4.2.6.2]hexadecane] the “P. berghei (1 day) ED50 po” value (P. berghei [3]) was 1.6 mg/kg, the “P. berghei (1 day) ED90 po” value (P. berghei [3]) was 3.9 mg/kg and the “P. berghei (1 day) ED50 sc” value (P. berghei [3]) was 1.1 mg/kg. The “P. berghei (1 day) ED90 sc” value (P. berghei [3]) was 2.4 mg/kg, the “Tm dec. (° C.)” value [1] was 161.1 °C and the “Activity (%) po” value ([6]; single 10 mg/kg po) was 99.95/99.95%. The “Activity (%) sc” value ([6]; single 10 mg/kg sc) was 99.95/99.95%.

In the case of `Clc1ccc(C2(c3ccc(Cl)cc3)OOC3(O2)C2CC4CC(C2)CC3C4)cc1` (stereo not drawn) [OZ43, Adamantane-2-spiro-3′-5′, 5′-bis(4′-chlorophenyl)-1′,2′,4′-trioxolane], the “P. berghei (1 day) ED50 po” value (P. berghei [3]) is reported as 2.1 mg/kg, the “P. berghei (1 day) ED90 po” value (P. berghei [3]) is reported as 4.0 mg/kg and the “oral activity based on po ED50/ED90 values” (P. berghei [3]) is reported as “only slightly less orally active than OZ11”. The “Tm dec. (° C.)” value [1] was 155.8 °C, the “Percentage of dead worm” value [5] was 0 and the Total dead worm [5] was 0. The “TWR (%)” value [5] was 1.1% and the “Mean total worm burden” value [5] was 35.4 ± 15.8^a.

With `CC(=O)N1CCC2(CC1)OOC1(O2)C2CC3CC(C2)CC1C3` (stereo not drawn) [OZ49, Adamantane-2-spiro-3′-8′-acetyl-1′,2′,4′-trioxa-8′-azaspiro[4.5]decane] the “in vitro potency, fold less potent than the analog” value [7] was 2 fold and the “Tm dec. (° C.)” value [1] was 155.7 °C.

In the case of `CCS(=O)(=O)N1CCC2(CC1)OOC1(O2)C2CC3CC(C2)CC1C3` (stereo not drawn) [OZ79, Adamantane-2-spiro-3′-8′-ethanesulfonyl-1′,2′,4′-trioxa-8′-azaspiro[4.5]decane], the “in vitro potency” value [7] is reported as “very potent”, the “Tm dec. (° C.)” value [1] is reported as 153.6 °C and the “in vivo activity” value [6] is reported as “good”.

In the case of `CC(=O)OCC(=O)N1CCC2(CC1)OOC1(O2)C2CC3CC(C2)CC1C3` (stereo not drawn) [OZ82, Adamantane-2-spiro-3′-8′-acetoxyacetyl-1′,2′,4′-trioxa-8′-azaspiro[4.5]decane], the “Tm dec. (° C.)” value [1] is reported as 153.7 °C, the “antimalarial activity” value [6] is reported as “very active” and the “IC50 (ng/ml) NF54” value [8] is reported as “/1.3 ng/ml”.

With `O=C(CO)N1CCC2(CC1)OOC1(O2)C2CC3CC(C2)CC1C3` (stereo not drawn) [OZ83, Adamantane-2-spiro-3′-8′-hydroxyacetyl-1′,2′,4′-trioxa-8′-azaspiro[4.5]decane] the “Tm dec. (° C.)” value [1] was 163.6 °C, the “antimalarial activity” value [6] was “very active” and the “IC50 (ng/ml) NF54” value [8] was “/1.0 ng/ml”.

With `O=S(=O)(c1ccc(F)cc1)N1CCC2(CC1)OOC1(O2)C2CC3CC(C2)CC1C3` (stereo not drawn) [OZ86, Adamantane-2-spiro-3′-8′-(4′-fluorobenzenesulfonyl)-1′,2′,4′-trioxa-8′-azaspiro[4.5]decane] the “Tm dec. (° C.)” value [1] was 153.0 °C and the “IC50 (ng/ml) NF54” value [8] was “/2.3 ng/ml”.

For `O=C(CCl)N1CCC2(CC1)OOC1(O2)C2CC3CC(C2)CC1C3` (stereo not drawn) [OZ87, Adamantane-2-spiro-3′-8′-chloroacetyl-1′,2′,4′-trioxa-8′-azaspiro[4.5]decane], the “Tm dec. (° C.)” value [1] was 149.7 °C, the “antimalarial activity” value [6] was “much less active” and the “IC50 (ng/ml) NF54” value [8] was “/4.5 ng/ml”.

For `O=C(OCCC1CCC2(CC1)OOC1(O2)C2CC3CC(C2)CC1C3)c1ccc([N+](=O)[O-])cc1` (stereo not drawn) [OZ88, Adamantane-2-spiro-3′-8′-[2′-(4′-nitrobenzoyloxy)ethyl]-1′,2′,4′-trioxaspiro[4.5]decane], the “Tm dec. (° C.)” value [1] was 158.9 °C and the “IC50 (ng/ml) NF54” value [8] was “/4.2 ng/ml”.

In the case of `OCCC1CCC2(CC1)OOC1(O2)C2CC3CC(C2)CC1C3` (stereo not drawn) [OZ89, Adamantane-2-spiro-3′-8′-(2′-hydroxyethyl)-1′,2′,4′-trioxaspiro[4.5]decane], the “Tm dec. (° C.)” value [1] is reported as 154.7 °C, the “antimalarial activity” value [6] is reported as “quite active” and the “IC50 (ng/ml) NF54” value [8] is reported as “/1.0 ng/ml”.

With “Adamantane-2-spiro-3′-1′,2′,4′-trioxaspiro[4.5]decan-8′-one pyridinioacetylhydrazone chloride [OZ55]” the “in vitro potency” value [7] was “quite potent”, the “in vivo activity” value [6] was “minimal” and the “Activity (%) po” value ([6]; single 10 mg/kg po) was 45%. For the same molecule, the “Activity (%) sc” value ([6]; single 10 mg/kg sc) was 97%, the “Survival (days) po” value ([6]; single 10 mg/kg po) was 6.0 days and the “Survival (days) sc” value ([6]; single 10 mg/kg sc) was 7.3 days.
